The results in this text go back to US4298529A, “Alkoxyimino dioxy butyric acid derivatives” (Fujisawa Pharmaceutical Co., Ltd., priority 1978, dated 1981).

In brackets after ≈: the same amount, converted by molar mass. Read-outs that look alike come from different tables or passages of the source.

The test system of data set [1] is Serratia Marcescens 58. The experiment in a line: MIC against the infecting strain. It counts as cell-based. The following applies: 20 h. The method, then: (§1) In vitro antibacterial activity was determined by the two-fold agar-plate dilution method as described below.
(§2) One loopful of the 100-fold dilution of an overnight culture of each test strain in Trypticase-soy broth was streaked on heart infusion agar (HI-agar) containing graded concentrations of the test compound and incubated at 37° C. for 20 hours. The minimal inhibitory concentration (MIC) was expressed in μg/ml.
(§3) ^*2 100fold dilution of the overnight

Data set [2] has as its system Proteus rettgeri 24. The data set can be described thus: MIC against the infecting strain. In kind it is cell-based. The following applies: Providencia rettgeri, 24, 20 h. The method, then: as §1, §2, §3
Data set [3] has as its system Klebsiella pneumoniae 39. The data set can be described thus: MIC against the infecting strain. It counts as cell-based. As to conditions: Klebsiella pneumoniae, 39, 20 h. The method, then:
as §1, §2, §3

Data set [4] deals with Escherichia coli 54. The data set can be described thus: MIC against the infecting strain. It counts as cell-based. As to conditions: Escherichia coli, 54, 20 h. The method, then:
as §1, §2, §3

Data set [5] concerns Serratia Marcescens 58. The data set can be described thus: Protecting effect against experimental infections in mice. In kind it is in vivo. As to conditions: sc, 96 h, ICR mice, i.p. challenge 1.2 × 10^7 cells/mouse, s.c. two divisional doses at 1 hr. and 3 hrs. after infection. The protocol:
(§4) Male ICR strain mice aged 4 weeks, each weighing 18.5-21.5 g. were used in groups of 10 mice. The test bacteria were cultured overnight at 37° C. on Trypticase-soy agar and then suspended in 5% mucin to obtain the suspension corresponding to each challenge cells. Mice were inoculated intraperitoneally with 0.5 ml. of the suspension. A solution of test compound was given subcutaneously to the mice in various dosage one hour after the challenge. The ED50 values were calculated from the number of surviving mice for each dosage after four days of observation.
^*3 treated with two divisional doses at 1 hr. and 3 hrs. after […]

For data set [6], the system named is Proteus rettgeri 24. The description is as above. In kind it is in vivo. As to conditions: Providencia rettgeri, 24, sc, 96 h; ICR mice, i.p. challenge 9.9 × 10^6 cells/mouse, s.c. one hour after challenge, survival after four days. The method, then: as §4
The subject of data set [7] is Klebsiella pneumoniae 39. The data set is described as above. As to conditions: Klebsiella pneumoniae, 39, sc, 96 h; ICR mice, i.p. challenge 8 × 10^6 cells/mouse, s.c. one hour after challenge, survival after four days. It counts as in vivo. The method, then:
as §4

The subject of data set [8] is Escherichia coli 54. The data set is described as above. It counts as in vivo. As to conditions: Escherichia coli, 54, sc, 96 h; ICR mice, i.p. challenge 1.1 × 10^7 cells/mouse, s.c. one hour after challenge, survival after four days. The protocol: as §4
In data set [9] the test system is Proteus vulgaris IAM-1025. The data set can be described thus: In vitro antibacterial activity, two-fold agar-plate dilution method. In kind it is cell-based. The following applies: IAM1025, HI-agar, 37° C., 20 hours, 100-fold diluted overnight culture. The method, then:
(§5) In vitro antibacterial activity was determined by the two-fold agar-plate dilution method as described below. One loopful of the 100-fold dilution of an overnight culture of each test strain in Trypticase-soy broth was streaked on heart infusion agar (HI-agar) containing graded concentrations of the test compound and incubated at 37° C. for 20 hours. The minimal inhibitory concentration (MIC) was expressed in μg/ml.

For data set [10], the system named is Pseudomonus aeruginosa NCTC-10490. The data set is described as above. The following applies: HI-agar, 37° C., 20 hours, 100-fold diluted overnight culture. In kind it is cell-based. The method, then:
as §5

In data set [11] the test system is Staphylococcus aureus 209P JC-1. The data set is described as above. It counts as cell-based. The following applies: HI-agar, 37° C., 20 hours, 100-fold diluted overnight culture. The method, then:
as §5

Data set [12] has as its system Escherichia coli. NIHJ JC-2. The description is as above. It counts as cell-based. As to conditions: NIHJJC2, HI-agar, 37° C., 20 hours, 100-fold diluted overnight culture. The protocol:
as §5

In data set [13] the test system is Klebsiella pneumoniae 20. The description is as above. It counts as cell-based. As to conditions: HI-agar, 37° C., 20 hours, 100-fold diluted overnight culture. The protocol:
as §5

Data set [14] deals with Serratia marcescens 35. The data set is described as above. The following applies: HI-agar, 37° C., 20 hours, 100-fold diluted overnight culture. In kind it is cell-based. The method, then:
as §5

Data set [15] has as its system Proteus mirabilis 18. Described as above. In kind it is cell-based. The following applies: HI-agar, 37° C., 20 hours, 100-fold diluted overnight culture. The protocol:
as §5

Data set [16] is described as follows: Acute toxicity in rats. On the set-up: species or system rat (ICL-SD strain). As to conditions: rat, in vivo, 7 days observation. The protocol: Ten male and 10 female rats aged 6 weeks (ICL-SD strain) were used per group. Test compound dissolved in distilled water was given subcutaneously and intravenously to the animals. […] The LD50 values were calculated from the number of dead animals by the Litchfield-Wilcoxon method.

Setting [17] is: inoculum size 10^0 (overnight culture), read-out: MIC.
The mark [18] stands for this setting: inoculum size 10^0 (overnight culture).
Setting [19] is: inoculum size 10^-2 (100fold dilution of the overnight culture).

With `CO/N=C(\C(=O)NC1C(=O)N2C(C(=O)O)=C(COC(C)=O)CSC12)c1csc(N)n1` (stereo not drawn) [Reference, 7[2(2-Amino-4-thiazolyl)-2-methoxyiminoacetamido] cephalospolanic acid (syn isomer), reference compound], the MIC (commonly the lowest concentration that inhibits growth of the organism) in data set [1] came out at 1.56 µg/mL (≈ 3.43 µM); in data set [1] (setting [17]), 50 µg/mL (≈ 110 µM); in data set [2] (setting [18]), 50 µg/mL (≈ 110 µM); in data set [2] (setting [19]), 0.1 µg/mL (≈ 0.22 µM); in data set [3] (setting [18]), 3.13 µg/mL (≈ 6.87 µM); in [3] (setting [19]) it was 0.05 µg/mL (≈ 0.11 µM). Besides, the results for the MIC in [4] (setting [18]) and in data set [4] (setting [19]) were 3.13 µg/mL (≈ 6.87 µM) and 0.1 µg/mL (≈ 0.22 µM), respectively. Further, the 50% effective dose (ED50) – broadly, the dose at which the effect has come halfway, by size or by number of responders – came out at 31.4 mg/kg in data set [5], 1.17 mg/kg in data set [6], 0.995 mg/kg in data set [7] and 2.8 mg/kg in data set [8].
In the case of `CO/N=C(\C(=O)NC1C(=O)N2C(C(=O)O)=CCSC12)c1csc(N)n1` (stereo not drawn) [Compound 1, 7-[2-(2-aminothiazol-4-yl)-2-methoxyiminoacetamido]-3-cephem-4-carboxylic acid (syn isomer)], the MIC in [1] (setting [17]) is 25 µg/mL (≈ 65.2 µM); in data set [1] (inoculum size 10^-2 (100fold dilution of the overnight culture), read-out: MIC), 0.39 µg/mL (≈ 1.02 µM); in [2] (setting [18]), 1.56 µg/mL (≈ 4.07 µM); in [2] (setting [19]), at most 0.025 µg/mL; in [3] (setting [18]), 0.39 µg/mL (≈ 1.02 µM); in data set [3] (setting [19]), at most 0.025 µg/mL. The MIC in data set [4] (setting [18]) is 0.78 µg/mL (≈ 2.03 µM); in [4] (setting [19]) it was 0.05 µg/mL (≈ 0.13 µM); in [9], at most 0.025 µg/mL; in data set [10] it was 0.39 µg/mL (≈ 1.02 µM); in [11], 6.25 µg/mL (≈ 16.3 µM); in data set [12], at most 0.025 µg/mL. The MIC in data set [13] is at most 0.025 µg/mL; in data set [14], 1.56 µg/mL (≈ 4.07 µM); in data set [15], at most 0.025 µg/mL. Besides, the ED50 is 3.56 mg/kg in data set [5], 0.39 mg/kg in [6], under 0.98 mg/kg in data set [7] and 0.95 mg/kg in data set [8]. The LD50 (usually the dose expected to kill half of the subjects tested) at 168 h was over 8000 mg/kg in data set [16] (iv, female, i.v., read-out: LD50 i.v.); about 8000 mg/kg in [16] (iv, male, i.v., read-out: LD50 i.v.); over 8000 mg/kg in data set [16] (sc, female, s.c., read-out: LD50 s.c.); over 8000 mg/kg in data set [16] (sc, male, s.c., read-out: LD50 s.c.).
